System: patients with type 2 diabetes
Test: Randomized, double-blind, two-period crossover clinical study of 100 mg vildagliptin once daily in the morning or the evening
Format: in vivo, human

SMILES: N#C[C@@H]1CCCN1C(=O)CNC12CC3CC(CC(O)(C3)C1)C2 [vildagliptin, (S)-1-[(3-hydroxy-1-adamantyl)amino]acetyl-2-cyano-pyrrolidine]
- overnight HGP (hepatic glucose production) reduction (administered before or with the evening meal, especially patients with baseline HbA1c>8.0%): unexpected additional benefit on the overnight HGP reduction
- overnight hepatic glucose production (at least 100 mg before or with the morning meal, or before or with the lunch, type 2 diabetes, especially baseline HbA1c>8.0%): can be reduced
